Results published in patent publication US6825230B2, “Spiro and dispiro 1,2,4-trixolane antimalarials” (Medicines for Malaria Venture MMV, priority 2002, dated 2004).

System: ANKA strain of P. berghei
Assay: Single dose STI in vivo screen in infected mice
Parameters: species or system Plasmodium berghei
Details: for Survival (days) 3 mg/kg SSV po / Activity (%) 3 mg/kg SSV po: single 3 mg/kg po in SSV; for Activity (%) 3 mg/kg SSV po / Activity (%) 10 mg/kg SSV po / Activity (%) 10 mg/kg po / Activity (%) 10 mg/kg sc: percent reduction in parasitemia on day 3; for Survival (days) 10 mg/kg SSV po: single 10 mg/kg po in SSV; for Survival (days) 10 mg/kg SSV po / Survival (days) 10 mg/kg po / Survival (days) 10 mg/kg sc: untreated 6-7 days; for Activity (%) 10 mg/kg SSV po: single 10 mg/kg po in standard suspending vehicle (SSV) on day 1 post-infection; for Survival (days) 10 mg/kg po: single 10 mg/kg po in 3% ethanol and 7% Tween 80; for Activity (%) 10 mg/kg po: single 10 mg/kg po in 3% ethanol and 7% Tween 80 on day 1 post-infection; for Survival (days) 10 mg/kg sc: single 10 mg/kg sc in 3% ethanol and 7% Tween 80; for Activity (%) 10 mg/kg sc: single 10 mg/kg sc in 3% ethanol and 7% Tween 80 on day 1 post-infection
Method: In the single dose STI in vivo screen, Moro SPF or NMRI mice infected with the ANKA strain of P. berghei (groups of three mice) were treated on day one post-infection with trioxolanes dissolved or suspended in 3% ethanol and 7% Tween 80. […] SSV consists of 0.5% w/v CMC, 0.5% v/v benzyl alcohol, 0.4% v/v Tween 80, and 0.9% w/v sodium chloride in water. Antimalarial activity was measured by percent reduction in parasitemia on day three post-infection and survival times compared to an untreated control group. Survival to day 30 post-infection is considered to be a cure. […] Other factors influencing antimalarial activity include the stability of carbon radicals formed by β-scission subsequent to the initial electron transfer to the peroxide bond and the influence of steric effects remote from the peroxide bond on the interactions between carbon radicals and potential drug targets.
Moro NMRI male mice (Fu Albino specific pathogen free) weighing 18±2 g were infected intravenously (i.v.) with 2×10^7 P. berghei ANKA strain-infected erythrocytes from donor mice on day 0 of the experiment. From donor mice with circa 30% parasitemia, heparinized blood was taken and diluted in physiological saline to 10^8 parasitized erythrocytes per ml. An aliquot (0.2 ml) of this suspension was injected i.v. into experimental and control groups of mice. […] Throughout the experiments, mice were kept in groups of three or five animals in Makrolon type II cages in an air-conditioned animal room at 22 to 23° C.
They were administered per os (p.o.) in a total volume of 0.01 ml per gram of mouse. The activity of the compound was determined by a variety of methods outlined in subsequent sections. Survival time was also recorded, and survival to day 30 post-infection was considered to be a cure.

SMILES	Survival (days) 3 mg/kg SSV po	Activity (%) 3 mg/kg SSV po [%]	Survival (days) 10 mg/kg SSV po	Activity (%) 10 mg/kg SSV po	Survival (days) 10 mg/kg po [days]	Activity (%) 10 mg/kg po [%]	Survival (days) 10 mg/kg sc [days]	Activity (%) 10 mg/kg sc [%]
O=C(NC[C@H]1CC[C@]2(CC1)OO[C@]1(O2)C2CC3CC(C2)CC1C3)c1ccccn1 [OZ304]	8.8 days	61	8.2 days	98%	–	–	–	–
O=CN1CCN(C[C@H]2CC[C@]3(CC2)OO[C@]2(O3)C3CC4CC(C3)CC2C4)CC1 [OZ303]	7.6 days	69	8.6 days	–	–	–	–	–
N[C@H]1CCN(C(=O)C[C@H]2CC[C@]3(CC2)OO[C@]2(O3)C3CC4CC(C3)CC2C4)C1 [OZ338]	8.0 days	–	9.8 days	–	–	–	–	–
CCOC(=O)CCNCC1CCC2(CC1)OOC1(O2)C2CC3CC(C2)CC1C3.Cc1ccc(S(=O)(=O)O)cc1 (stereo not drawn) [OZ318]	7.6 days	29	12.4 days	88%	–	–	–	–
O=C(CNC(=O)c1cccnc1)NC[C@H]1CC[C@]2(CC1)OO[C@]1(O2)C2CC3CC(C2)CC1C3 [OZ316]	8.0 days	7	10.0 days	69%	–	–	–	–
O=c1ccn(C[C@H]2CC[C@]3(CC2)OO[C@]2(O3)C3CC4CC(C3)CC2C4)cc1 [OZ302]	9.0/9.0 days	88	9.0/9.0 days	–	–	–	–	–
NC(=O)c1ccc(NC[C@H]2CC[C@]3(CC2)OOC2(O3)C3CC4CC(C3)CC2C4)cc1 (stereo partly drawn) [OZ286]	7.0 days	60	8.7 days	99.73%	–	–	–	–
O=C(Cn1ccnc1)N1CCC2(CC1)OOC1(O2)C2CC3CC(C2)CC1C3 (stereo not drawn) [OZ103, Adamantane-2-spiro-3′-8′-(1′H-imidazol-1′-ylacetyl)-1′,2′,4′-trioxa-8′-azaspiro[4.5]decane]	–	–	6.7 days	63%	7.3	86	7.3	87
Cn1nnnc1SC[C@H]1CC[C@]2(CC1)OO[C@]1(O2)C2CC3CC(C2)CC1C3 [OZ331]	7.0 days	66	9.0 days	–	–	–	–	–
O=C(COc1ccc(Cl)cc1)N1CCC2(CC1)OOC1(O2)C2CC3CC(C2)CC1C3 (stereo not drawn) [OZ101, Adamantane-2-spiro-3′-8′-(4′-chlorophenoxyacetyl)-1′,2′,4′-trioxa-8′-azaspiro[4.5]decane]	–	–	5.3 days	0%	6.3	44	13	99.97
O=C(C[C@H]1CC[C@]2(CC1)OO[C@]1(O2)C2CC3CC(C2)CC1C3)N1CCS(=O)(=O)CC1 [OZ342]	6.4 days	0	6.8 days	27%	–	–	–	–
O=C(NC[C@H]1CC[C@]2(CC1)OO[C@]1(O2)C2CC3CC(C2)CC1C3)N1CCOCC1 [OZ272]	6.6 days	49	10.3 days	98%	–	–	–	–
CS(=O)(=O)N(CC(N)=O)C[C@H]1CC[C@]2(CC1)OO[C@]1(O2)C2CC3CC(C2)CC1C3 [OZ308]	6.6 days	30	7.8 days	86%	–	–	–	–
c1cnc(NC[C@H]2CC[C@]3(CC2)OO[C@]2(O3)C3CC4CC(C3)CC2C4)nc1 [OZ326]	6.0 days	7	7.4 days	80%	–	–	–	–
Cc1ccc(NC(=O)N2CCC3(CC2)OOC2(O3)C3CC4CC(C3)CC2C4)cc1 (stereo not drawn) [OZ142]	–	–	6.3 days	2%	6.0	0	14.3	99.98
OC1(Cc2nc3ccccc3s2)CCC2(CC1)OOC1(O2)C2CC3CC(C2)CC1C3 (stereo not drawn) [OZ276]	–	–	7.3/ND days	17/ND %	–	–	–	–
